In publication PMC9239047 (mBio, 2022):
Positions of bridges follow the written chain, without caps; N, C: chain ends. Residues, ends and D or L forms follow the SMILES beside them.

How the values were obtained:
MRSA agr-IV = MRSA agr-IV (Staphylococcus aureus, UniProt Q309Z2); assay: MRSA agr-IV P3::YFP fluorescent reporter assay; format: cell-based; details: for inhibition of MRSA agr-IV by synthetic AIP (in words): synthetic AIP dose response, 24 h fluorescence
MRSA agr-II = MRSA agr-II (Staphylococcus aureus, UniProt O33587); assay: MRSA agr-II P3::YFP fluorescent reporter assay; format: cell-based
MRSA agr-II, sequence (O33587 entry or part of it): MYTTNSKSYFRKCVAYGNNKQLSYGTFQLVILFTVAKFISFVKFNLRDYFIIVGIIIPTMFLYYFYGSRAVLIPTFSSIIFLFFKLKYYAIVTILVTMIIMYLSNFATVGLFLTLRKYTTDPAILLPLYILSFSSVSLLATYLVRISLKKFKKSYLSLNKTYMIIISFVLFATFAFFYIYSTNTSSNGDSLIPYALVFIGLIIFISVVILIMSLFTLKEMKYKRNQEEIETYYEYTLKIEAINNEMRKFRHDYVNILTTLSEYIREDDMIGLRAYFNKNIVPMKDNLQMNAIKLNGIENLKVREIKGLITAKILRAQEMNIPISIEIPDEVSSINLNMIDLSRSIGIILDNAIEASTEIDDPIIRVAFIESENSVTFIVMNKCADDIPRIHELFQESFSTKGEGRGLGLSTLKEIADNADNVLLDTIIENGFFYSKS

MRSA agr-III = MRSA agr-III (Staphylococcus aureus, UniProt O33590); assay: MRSA agr-III P3::YFP fluorescent reporter assay; format: cell-based
MRSA agr-III, sequence (O33590 entry or part of it): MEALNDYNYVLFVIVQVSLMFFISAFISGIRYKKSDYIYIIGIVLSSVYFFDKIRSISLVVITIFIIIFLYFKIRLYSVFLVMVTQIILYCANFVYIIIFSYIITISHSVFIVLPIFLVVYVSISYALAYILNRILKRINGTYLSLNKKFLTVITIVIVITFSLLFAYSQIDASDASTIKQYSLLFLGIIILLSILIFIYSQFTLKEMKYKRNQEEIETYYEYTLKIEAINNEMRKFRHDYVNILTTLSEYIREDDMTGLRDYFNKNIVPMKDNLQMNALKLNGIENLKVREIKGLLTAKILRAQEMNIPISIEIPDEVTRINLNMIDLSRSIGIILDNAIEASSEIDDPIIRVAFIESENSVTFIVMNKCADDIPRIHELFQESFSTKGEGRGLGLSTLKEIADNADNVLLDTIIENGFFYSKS

MRSA strain LAC = assay: Murine epicutaneous infection; format: in vivo, C57BL/6J mice
S. hominis agr-II = S. hominis agr-II P3::sGFP reporter assay (AH4553 + pCM41); format: cell-based, Staphylococcus hominis; details: for S. hominis agr-II reporter growth (OD600): increasing concentrations of synthetic AIP; for effect on S. hominis agr-II fluorescent signal (in words): increasing doses of synthetic AIP, early signal
USA300 MRSA (strain LAC) = assay: Murine dermonecrosis model; format: in vivo, BALB/c mice; details: 10 or 50 μg synthetic AIP-II in DMSO mixed with 1 × 10^8 CFU MRSA, intradermal; vs vehicle; n = 10 per group; dose dependent
MRSA agr-I = MRSA agr-I (Staphylococcus aureus, UniProt O07911); assay: MRSA agr-I P3::YFP fluorescent reporter assay; format: cell-based
MRSA agr-I, sequence (O07911 entry or part of it): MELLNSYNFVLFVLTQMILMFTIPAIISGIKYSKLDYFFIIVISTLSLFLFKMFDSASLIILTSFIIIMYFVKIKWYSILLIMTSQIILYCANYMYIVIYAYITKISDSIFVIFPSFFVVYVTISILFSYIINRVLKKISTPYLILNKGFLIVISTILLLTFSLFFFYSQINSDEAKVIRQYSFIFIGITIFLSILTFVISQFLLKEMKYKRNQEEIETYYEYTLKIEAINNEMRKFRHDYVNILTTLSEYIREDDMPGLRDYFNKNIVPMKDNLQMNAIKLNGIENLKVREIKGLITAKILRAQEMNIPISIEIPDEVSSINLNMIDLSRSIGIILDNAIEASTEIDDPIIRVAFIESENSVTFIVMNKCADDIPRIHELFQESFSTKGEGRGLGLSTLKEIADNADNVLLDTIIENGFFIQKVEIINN

S. hominis agr-I = S. hominis agr-I P3::sGFP reporter assay (AH5009 + pCM41); format: cell-based, Staphylococcus hominis; details: for S. hominis agr-I reporter growth (OD600): increasing concentrations of synthetic AIP; for effect on S. hominis agr-I fluorescent signal (in words): increasing doses of synthetic AIP, early signal
MRSA = details: mouse model; cited from earlier work
S. epidermidis agr-I = S. epidermidis agr-I (Staphylococcus epidermidis, UniProt O86861); assay: S. epidermidis agr-I P3::sGFP reporter assay; format: cell-based
S. epidermidis agr-I, sequence (O86861 entry or part of it): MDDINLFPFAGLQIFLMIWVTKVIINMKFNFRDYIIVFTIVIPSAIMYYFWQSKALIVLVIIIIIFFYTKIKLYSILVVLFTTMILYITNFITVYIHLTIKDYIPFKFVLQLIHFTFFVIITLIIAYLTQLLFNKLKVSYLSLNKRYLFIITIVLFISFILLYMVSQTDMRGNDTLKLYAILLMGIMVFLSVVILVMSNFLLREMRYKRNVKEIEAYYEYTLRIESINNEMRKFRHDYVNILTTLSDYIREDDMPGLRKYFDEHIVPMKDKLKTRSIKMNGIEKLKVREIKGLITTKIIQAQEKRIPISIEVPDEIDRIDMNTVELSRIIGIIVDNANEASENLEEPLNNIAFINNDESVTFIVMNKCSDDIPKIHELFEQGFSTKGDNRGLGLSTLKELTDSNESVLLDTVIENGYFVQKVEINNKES

[1] = system: S. hominis AH5009 AgrA-regulated genes; assay: RNA-seq of apicidin-treated S. hominis agr-I; format: cell-based, Staphylococcus hominis
[2] = system: S. hominis AH5009 PSM-β1 production; assay: Mass spectrometric detection of PSM-β1 in conditioned medium; format: cell-based, Staphylococcus hominis; details: 100 μM apicidin or DMSO, 8 h; LC-MS; triplicate injections of biological triplicates
[3] = cognate AIP, fluorescence at 8 h
[4] = 100 μM apicidin vs DMSO, 4-fold cutoff, false discovery rate P value ≤0.05
[5] = RNA-seq, S. hominis AH5009, 100 μM apicidin vs DMSO, 8 h, biological triplicate
[6] = RNA-seq, S. hominis AH5009, 100 μM apicidin vs DMSO, 8 h, outside 4-fold cutoff
[7] = 100 μM apicidin vs DMSO, over 24 h

MRSA agr-IV, sequence (Q309Z2 entry or part of it): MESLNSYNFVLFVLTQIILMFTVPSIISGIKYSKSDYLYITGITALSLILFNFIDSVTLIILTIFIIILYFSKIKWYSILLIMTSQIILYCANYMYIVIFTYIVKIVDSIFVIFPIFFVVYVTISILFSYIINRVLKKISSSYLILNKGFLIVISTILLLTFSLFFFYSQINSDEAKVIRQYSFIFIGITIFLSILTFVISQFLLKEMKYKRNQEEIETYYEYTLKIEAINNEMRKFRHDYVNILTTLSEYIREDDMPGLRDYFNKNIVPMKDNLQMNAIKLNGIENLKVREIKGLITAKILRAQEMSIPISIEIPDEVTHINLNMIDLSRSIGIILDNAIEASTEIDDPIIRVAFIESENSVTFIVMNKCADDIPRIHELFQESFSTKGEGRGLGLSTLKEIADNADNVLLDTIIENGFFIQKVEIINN

For C[C@@H]1NC(=O)[C@@H](NC(=O)[C@@H]2CCCN2C(=O)[C@H](CO)NC(=O)[C@H](Cc2ccc(O)cc2)NC(=O)[C@@H](N)CO)CSC(=O)[C@H](Cc2ccccc2)NC(=O)[C@H](Cc2ccc(O)cc2)NC(=O)[C@H]([C@@H](C)O)NC1=O [AIP-II] (H-SYSPCATYF; thioester 5-C; N-terminus assumed), the IC50 (MRSA agr-IV) was 1130 nM, the “inhibition of MRSA agr-IV by synthetic AIP (in words)” value (“inhibition of MRSA agr-IV” for short) (MRSA agr-IV) was “poorly inhibited” and the IC50 (MRSA agr-II) was 2110 nM. For the same molecule, the IC50 (MRSA agr-III) was 3 nM, the “barrier function by transepithelial water loss (TEWL)” value (MRSA strain LAC; 10 or 50 μg synthetic AIP-II with 1 × 10^8 CFU MRSA on gauze, 72 h topical, vs vehicle, n = 10 per group) was “retained more of their barrier function” and the “total CFU burden in epicutaneous lesions” value (MRSA strain LAC; 10 or 50 μg synthetic AIP-II, 72 h postinfection) was “no differences in CFU between groups”. The “gross morphology of the skin” value (MRSA strain LAC; synthetic AIP-II-treated vs vehicle control mice, 72 hpi) was “less redness, scaling, and erythema”, the “concentration of synthetic AIP optimal to boost S. hominis agr-II fluorescent signal” value (S. hominis agr-II; [3]) was 12.5 nM and the “S. hominis agr-II reporter growth (OD600)” value (S. hominis agr-II) was “no effect on growth”. For the same molecule, the dermonecrotic lesion size (USA300 MRSA (strain LAC)) was “significantly smaller lesions”, the IC50 (MRSA agr-I) was 15 nM and the “S. hominis agr-I reporter growth (OD600)” value (S. hominis agr-I) was “no effect on reporter growth”. The IC50 (S. hominis agr-I; read-out: IC50, inhibition of S. hominis agr-I signaling, noncognate synthetic AIP dose response, relative fluorescence at 8 h, three independent experiments pooled) was 9 nM.

For CC[C@H](C)[C@H](NC(=O)[C@@H](N)[C@@H](C)O)C(=O)N[C@@H](CC(N)=O)C(=O)N[C@H](C(=O)N[C@H]1CSC(=O)[C@H](Cc2ccccc2)NC(=O)[C@H](Cc2ccc(O)cc2)NC(=O)CNC(=O)CNC1=O)[C@@H](C)O [AIP-IV] (H-TINTCGGYF; thioester 5-C; N-terminus assumed), the “inhibition of MRSA agr-IV” value (MRSA agr-IV) was “not inhibited”, the IC50 (MRSA agr-II) was 140 nM and the IC50 (MRSA agr-III) was 37 nM. For the same molecule, the “S. hominis agr-II reporter growth (OD600)” value (S. hominis agr-II) was “did not impact the growth”, the “effect on S. hominis agr-II fluorescent signal (in words)” value (S. hominis agr-II) was “negligible effects on agr-II” and the IC50 (MRSA agr-I) was 128 nM. The “S. hominis agr-I reporter growth (OD600)” value (S. hominis agr-I) was “did not impact the growth” and the “effect on S. hominis agr-I fluorescent signal (in words)” value (S. hominis agr-I) was “slightly boosted early agr-I signaling”.

In the case of CC(C)[C@H](NC(=O)[C@H](CC(N)=O)NC(=O)[C@H](Cc1ccc(O)cc1)NC(=O)[C@@H](N)CO)C(=O)N[C@H]1CSC(=O)[C@H](Cc2ccccc2)NC(=O)[C@H](Cc2ccc(O)cc2)NC(=O)CNC(=O)CNC1=O [AIP-I] (H-SYNVCGGYF; thioester 5-C), the “inhibition of MRSA agr-IV” value (MRSA agr-IV) is listed as “poorly inhibited”, the “MRSA-associated AD symptoms” value (MRSA) is listed as “effectively mitigates MRSA-associated AD symptoms” and the “inhibition of S. epidermidis agr-I (in words)” value (S. epidermidis agr-I; synthetic AIP dose response) is listed as “poor inhibitor”. The “S. epidermidis agr-I early fluorescent signal” value (S. epidermidis agr-I; synthetic AIP, first 8 h of incubation) was “boosted the fluorescent signal”, the “S. hominis agr-II reporter growth (OD600)” value (S. hominis agr-II) was “no impact on reporter growth” and the IC50 (S. hominis agr-II; read-out: IC50, inhibition of S. hominis agr-II fluorescent signaling, noncognate synthetic AIP dose response, relative fluorescence at 8 h, three independent experiments pooled) was 7 nM. The “concentration of synthetic AIP that significantly boosted S. hominis agr-I fluorescent signal” value (S. hominis agr-I; [3]) was ≥ 25 nM and the “S. hominis agr-I reporter growth (OD600)” value (S. hominis agr-I) was “no effect on growth”.

For CC(C)[C@H](NC(=O)[C@@H](NC(=O)[C@H](CCC(N)=O)NC(=O)[C@@H](N)CO)[C@@H](C)O)C(=O)N[C@H]1CSC(=O)[C@H](Cc2ccccc2)NC(=O)[C@H](Cc2ccc(O)cc2)NC(=O)CNC(=O)[C@H](CO)NC1=O [AIP-V] (H-SQTVCSGYF; thioester 5-C; N-terminus assumed), the IC50 (MRSA agr-IV) was 3810 nM, the “inhibition of MRSA agr-IV” value (MRSA agr-IV) was “poorly inhibited” and the IC50 (MRSA agr-II) was 59 nM. For the same molecule, the IC50 (MRSA agr-III) was 4 nM, the “S. hominis agr-II reporter growth (OD600)” value (S. hominis agr-II) was “did not impact the growth” and the “effect on S. hominis agr-II fluorescent signal (in words)” value (S. hominis agr-II) was “modestly inhibited agr-II”. For the same molecule, the IC50 (MRSA agr-I) was 43 nM, the “S. hominis agr-I reporter growth (OD600)” value (S. hominis agr-I) was “did not impact the growth” and the “effect on S. hominis agr-I fluorescent signal (in words)” value (S. hominis agr-I) was “weak to negligible effects on agr-I”.

In the case of CCC(=O)CCCCC[C@@H]1NC(=O)[C@H]2CCCCN2C(=O)[C@H]([C@@H](C)CC)NC(=O)[C@H](Cc2cn(OC)c3ccccc23)NC1=O [apicidin], the “number of genes downregulated” value [1, 4] is reported as 40 genes, the “number of genes significantly upregulated” value [1, 4] is reported as 7 genes and the “Fold change, MOV58_00040 serine--tRNA ligase” value [1, 5] is reported as -5.87 fold. For the same molecule, the “Fold change, MOV58_00405 arsenate reductase” value [1, 5] was -5.32 fold, the “Fold change, MOV58_00410 anion permease” value [1, 5] was -4.39 fold and the “Fold change, MOV58_00550 (S)-acetoin forming diacetyl reductase” value [1, 5] was -7.89 fold. The “Fold change, MOV58_01010 acetoin reductase/dehydrogenase” value [1, 5] was -5.45 fold, the “Fold change, MOV58_01015 yxel choloylglycine hydrolase family protein” value [1, 5] was -4.94 fold and the “Fold change, MOV58_01105 excinuclease ABC subunit UvrA” value [1, 5] was 8.12 fold. The “Fold change, MOV58_01110 arylamine N-acetyltransferase” value [1, 5] was 9.09 fold, the “Fold change, MOV58_01115 ABC2 transporter permease” value [1, 5] was 9.05 fold and the “Fold change, MOV58_01120 ABC transporter ATP binding protein btuD” value [1, 5] was 10.45 fold. The “Fold change, MOV58_01125 DUF3169 family protein” value [1, 5] was 19.01 fold, the “Fold change, MOV58_01130 helix turn helix transcriptional regulator” value [1, 5] was 18.5 fold and the “Fold change, MOV58_02040 aldehyde dehydrogenase family protein” value [1, 5] was -4.94 fold. For the same molecule, the “Fold change, MOV58_05440 hypothetical protein” value [1, 5] was -5.09 fold, the “Fold change, MOV58_05705 hypothetical protein” value [1, 5] was -4.08 fold and the “Fold change, MOV58_05710 hypothetical protein” value [1, 5] was -6.86 fold. The “Fold change, MOV58_05715 fructose-bisphosphatase class III” value [1, 5] was -6.94 fold, the “Fold change, MOV58_05720 hypothetical protein” value [1, 5] was -5.64 fold and the “Fold change, MOV58_05820 hypothetical protein” value [1, 5] was -9.59 fold. For the same molecule, the “Fold change, MOV58_06035 universal stress protein” value [1, 5] was -4.69 fold, the “Fold change, MOV58_06695 RNA polymerase sigma factor RpoD” value [1, 5] was -10.14 fold and the “Fold change, MOV58_07655 hypothetical protein” value [1, 5] was 4.07 fold. The “Fold change, MOV58_07775 hypothetical protein” value [1, 5] was -4.58 fold, the “Fold change, MOV58_07810 MerR family transcriptional regulator” value [1, 5] was -4.32 fold and the “Fold change, MOV58_08480 beta class phenol soluble modulin” value [1, 5] was -11.36 fold. For the same molecule, the “Fold change, MOV58_08485 beta class phenol soluble modulin” value [1, 5] was -11.33 fold, the “Fold change, MOV58_08490 beta class phenol soluble modulin” value [1, 5] was -9.37 fold and the “Fold change, MOV58_08495 beta class phenol soluble modulin” value [1, 5] was -8.82 fold. The “Fold change, MOV58_09035 hypothetical protein” value [1, 5] was -4.5 fold, the “Fold change, MOV58_09040 IDEAL domain containing protein” value [1, 5] was -6.02 fold and the “Fold change, MOV58_09615 Hypothetical protein” value [1, 5] was -4.82 fold. For the same molecule, the “Fold change, MOV58_09645 hypothetical protein” value [1, 5] was -5.25 fold, the “Fold change, MOV58_09650 hypothetical protein” value [1, 5] was -5.02 fold and the “Fold change, MOV58_09655 hypothetical protein” value [1, 5] was -4.73 fold. The “Fold change, MOV58_09715 phosphoglycerate kinase” value [1, 5] was -6.94 fold, the “Fold change, MOV58_09720 type I glyceraldehyde-3-phosphate dehydrogenase” value [1, 5] was -4.93 fold and the “Fold change, MOV58_09725 CggR, central glycolytic genes regulator” value [1, 5] was -7.22 fold. The “Fold change, MOV58_09730 hypothetical” value [1, 5] was -5.22 fold, the “Fold change, MOV58_10080 fructose-specific PTS transporter subunit EIIC” value [1, 5] was -4.31 fold and the “Fold change, MOV58_10085 1-phosphofruktokinase” value [1, 5] was -22.43 fold. The “Fold change, MOV58_10090 DeoR/GlpR family DNA-binding transcription regulator” value [1, 5] was -27.93 fold, the “Fold change, MOV58_10435 alpha/beta hydrolase” value [1, 5] was -6.85 fold and the “Fold change, MOV58_10445 Hypothetical protein” value [1, 5] was -10.93 fold. The “Fold change, MOV58_10515 flavodoxin family protein” value [1, 5] was -5.24 fold, the “Fold change, MOV58_10990 Hypothetical protein” value [1, 5] was -4.65 fold and the “Fold change, MOV58_11890 LytTR family DNA binding domain containing protein” value [1, 5] was -7.12 fold. For the same molecule, the “Fold change, MOV58_11895 DUF3021 domain-containing protein” value [1, 5] was -5.21 fold, the “RNAIII expression, down -fold” value [1, 6] was 3.40 fold and the “agrB expression, down -fold” value [1, 6] was 2.89 fold. For the same molecule, the “agrD expression, down -fold” value [1, 6] was 3.08 fold, the “PSM-β1 presence in S. hominis cultures” value [2] was “present only in S. hominis cultures treated with DMSO, not in those treated with apicidin” and the “S. hominis agr-I P3::sGFP growth (OD600)” value (S. hominis agr-I; [7]) was “no effect on growth”. The “S. hominis agr-I signaling (P3::sGFP fluorescence)” value (S. hominis agr-I; [7]) was “inhibited S. hominis agr-I signaling”.
